The values that follow come from PMC11167047 (Cell Death Discovery, 2024).

The structures appear in SMILES notation.

Holding throughout (test): kinome screen (33PanQinase)
Type in all cases: biochemical

The target in one experiment is T1, NIK (Homo sapiens, UniProt Q99558).
T1 construct: purchased Reaction Biology Europe GmbH (formerly ProQinase)
How it is done:
(§1) The Kinome Screening was performed by Reaction Biology Europe GmbH (http://reactionbiology.com; Freiburg i. Br., Germany).

A further experiment addresses T2, CDK20/CycT1 (Homo sapiens, UniProt Q8IZL9).
T2 construct: purchased Reaction Biology Europe GmbH (formerly ProQinase)
How it is done: as §1

A further experiment has as its target T3, GRK7 (Homo sapiens, UniProt Q8WTQ7).
T3 construct: purchased Reaction Biology Europe GmbH (formerly ProQinase)
T3 sequence (Q8WTQ7 1-553): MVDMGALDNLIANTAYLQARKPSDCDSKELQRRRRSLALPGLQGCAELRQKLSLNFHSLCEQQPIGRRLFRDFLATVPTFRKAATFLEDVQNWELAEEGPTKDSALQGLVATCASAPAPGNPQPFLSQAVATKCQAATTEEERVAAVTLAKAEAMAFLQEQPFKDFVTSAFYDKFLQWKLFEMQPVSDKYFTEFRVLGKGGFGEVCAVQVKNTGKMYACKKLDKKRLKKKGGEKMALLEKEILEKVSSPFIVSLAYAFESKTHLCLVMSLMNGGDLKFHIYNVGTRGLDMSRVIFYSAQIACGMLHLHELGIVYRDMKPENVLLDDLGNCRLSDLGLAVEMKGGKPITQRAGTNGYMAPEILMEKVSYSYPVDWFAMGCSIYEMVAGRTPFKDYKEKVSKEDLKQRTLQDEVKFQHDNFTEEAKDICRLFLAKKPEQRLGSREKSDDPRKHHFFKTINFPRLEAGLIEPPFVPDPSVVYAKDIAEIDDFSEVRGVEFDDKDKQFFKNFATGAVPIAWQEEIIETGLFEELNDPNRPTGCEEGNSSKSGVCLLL
How it is done: as §1

Another experiment concerns the target T4, ARK5 (Homo sapiens, UniProt O60285).
T4 construct: purchased Reaction Biology Europe GmbH (formerly ProQinase)
T4 sequence (O60285 1-661): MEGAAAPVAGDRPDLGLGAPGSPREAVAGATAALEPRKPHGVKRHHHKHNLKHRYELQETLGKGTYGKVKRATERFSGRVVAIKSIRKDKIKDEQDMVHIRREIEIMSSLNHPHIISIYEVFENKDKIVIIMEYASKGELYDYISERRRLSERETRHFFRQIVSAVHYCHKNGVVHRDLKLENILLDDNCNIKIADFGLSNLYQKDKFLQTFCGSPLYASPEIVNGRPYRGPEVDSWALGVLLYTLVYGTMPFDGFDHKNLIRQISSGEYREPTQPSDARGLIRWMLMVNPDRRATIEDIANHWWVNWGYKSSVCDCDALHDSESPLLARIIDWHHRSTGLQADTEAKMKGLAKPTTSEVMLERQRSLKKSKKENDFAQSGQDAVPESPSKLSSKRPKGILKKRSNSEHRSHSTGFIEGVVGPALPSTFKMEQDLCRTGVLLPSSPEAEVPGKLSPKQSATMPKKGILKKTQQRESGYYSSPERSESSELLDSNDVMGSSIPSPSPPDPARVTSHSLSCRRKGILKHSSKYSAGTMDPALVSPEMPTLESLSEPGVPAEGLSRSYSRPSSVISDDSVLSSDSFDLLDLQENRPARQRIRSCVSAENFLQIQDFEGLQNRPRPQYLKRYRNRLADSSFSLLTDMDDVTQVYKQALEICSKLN
How it is done: as §1

The next experiment addresses T5, JAK3 (Homo sapiens, UniProt P52333).
T5 construct: purchased Reaction Biology Europe GmbH (formerly ProQinase)
T5 sequence (P52333 1-1124): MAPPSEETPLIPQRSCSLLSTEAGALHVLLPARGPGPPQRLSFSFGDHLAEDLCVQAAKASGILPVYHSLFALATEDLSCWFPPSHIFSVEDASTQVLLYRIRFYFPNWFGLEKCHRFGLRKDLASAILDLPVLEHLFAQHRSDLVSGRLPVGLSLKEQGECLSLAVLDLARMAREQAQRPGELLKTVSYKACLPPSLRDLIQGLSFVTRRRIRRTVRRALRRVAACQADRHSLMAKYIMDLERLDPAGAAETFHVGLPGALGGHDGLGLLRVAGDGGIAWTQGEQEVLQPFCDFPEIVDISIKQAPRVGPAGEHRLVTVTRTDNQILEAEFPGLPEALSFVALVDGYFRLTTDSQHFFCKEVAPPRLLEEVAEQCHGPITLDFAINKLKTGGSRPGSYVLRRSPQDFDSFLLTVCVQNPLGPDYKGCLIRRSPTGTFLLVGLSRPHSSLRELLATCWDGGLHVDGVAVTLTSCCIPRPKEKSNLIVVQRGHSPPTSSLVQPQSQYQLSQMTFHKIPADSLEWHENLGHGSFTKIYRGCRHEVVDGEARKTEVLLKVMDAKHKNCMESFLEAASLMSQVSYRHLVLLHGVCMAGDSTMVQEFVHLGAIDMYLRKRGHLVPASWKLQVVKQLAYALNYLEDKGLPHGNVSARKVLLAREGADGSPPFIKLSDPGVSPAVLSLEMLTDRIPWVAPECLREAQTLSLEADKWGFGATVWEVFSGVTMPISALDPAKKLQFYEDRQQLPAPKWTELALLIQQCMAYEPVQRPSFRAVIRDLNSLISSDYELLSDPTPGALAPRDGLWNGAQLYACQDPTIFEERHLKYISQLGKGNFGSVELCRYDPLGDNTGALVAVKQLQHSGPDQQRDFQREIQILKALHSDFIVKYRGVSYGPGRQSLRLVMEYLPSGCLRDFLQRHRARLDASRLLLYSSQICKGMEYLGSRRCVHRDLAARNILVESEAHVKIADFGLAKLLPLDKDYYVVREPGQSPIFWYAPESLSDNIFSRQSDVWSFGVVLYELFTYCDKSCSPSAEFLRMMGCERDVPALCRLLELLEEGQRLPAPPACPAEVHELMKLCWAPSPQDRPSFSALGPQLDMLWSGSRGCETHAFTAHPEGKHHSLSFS
How it is done: as §1

Another experiment concerns the target T6, RET (Homo sapiens, UniProt P07949).
T6 construct: purchased Reaction Biology Europe GmbH (formerly ProQinase)
How it is done:
as §1

In another experiment the target is T7, TTBK1 (Homo sapiens, UniProt Q5TCY1).
T7 construct: purchased Reaction Biology Europe GmbH (formerly ProQinase)
T7 sequence (Q5TCY1 whole entry): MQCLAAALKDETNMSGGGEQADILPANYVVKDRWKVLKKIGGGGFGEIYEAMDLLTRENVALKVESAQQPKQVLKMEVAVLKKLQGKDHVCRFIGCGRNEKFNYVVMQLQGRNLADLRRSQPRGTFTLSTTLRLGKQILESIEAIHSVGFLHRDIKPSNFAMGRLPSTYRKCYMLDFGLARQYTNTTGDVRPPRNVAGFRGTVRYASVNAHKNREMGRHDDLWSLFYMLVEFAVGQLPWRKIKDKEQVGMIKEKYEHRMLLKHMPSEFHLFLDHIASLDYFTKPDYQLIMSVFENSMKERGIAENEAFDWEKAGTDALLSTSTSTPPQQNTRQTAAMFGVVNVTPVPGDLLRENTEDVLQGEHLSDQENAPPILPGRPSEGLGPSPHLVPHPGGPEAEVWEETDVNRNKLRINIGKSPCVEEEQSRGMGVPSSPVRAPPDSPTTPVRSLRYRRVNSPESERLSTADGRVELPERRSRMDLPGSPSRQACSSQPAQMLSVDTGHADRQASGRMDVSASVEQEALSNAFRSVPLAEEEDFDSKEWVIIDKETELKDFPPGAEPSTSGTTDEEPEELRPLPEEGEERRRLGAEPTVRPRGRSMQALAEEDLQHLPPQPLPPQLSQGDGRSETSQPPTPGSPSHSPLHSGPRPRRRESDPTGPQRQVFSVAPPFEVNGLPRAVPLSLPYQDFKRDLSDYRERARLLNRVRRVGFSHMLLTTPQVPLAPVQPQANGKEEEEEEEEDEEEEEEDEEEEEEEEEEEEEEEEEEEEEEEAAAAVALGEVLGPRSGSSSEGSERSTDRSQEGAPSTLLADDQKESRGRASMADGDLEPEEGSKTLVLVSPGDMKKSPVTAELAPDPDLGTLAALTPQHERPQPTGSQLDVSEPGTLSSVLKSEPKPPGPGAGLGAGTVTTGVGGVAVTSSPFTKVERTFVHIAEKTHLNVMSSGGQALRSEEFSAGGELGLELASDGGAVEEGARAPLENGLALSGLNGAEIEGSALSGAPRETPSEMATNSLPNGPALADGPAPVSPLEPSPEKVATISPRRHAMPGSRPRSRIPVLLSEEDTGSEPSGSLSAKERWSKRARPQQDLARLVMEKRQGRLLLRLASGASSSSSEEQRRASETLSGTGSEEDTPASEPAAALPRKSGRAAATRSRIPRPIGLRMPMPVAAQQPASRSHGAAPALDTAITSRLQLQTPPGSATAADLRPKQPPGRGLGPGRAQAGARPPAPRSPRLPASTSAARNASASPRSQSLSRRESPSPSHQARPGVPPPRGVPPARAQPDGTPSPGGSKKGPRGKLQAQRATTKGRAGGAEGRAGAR
How it is done: as §1

Another experiment addresses T8, CLK4 (Homo sapiens, UniProt Q9HAZ1).
T8 construct: purchased Reaction Biology Europe GmbH (formerly ProQinase)
How it is done: as §1

The target of another experiment is T9, ERK5 (Homo sapiens, UniProt Q13164).
T9 construct: purchased Reaction Biology Europe GmbH (formerly ProQinase)
T9 sequence (Q13164 whole entry): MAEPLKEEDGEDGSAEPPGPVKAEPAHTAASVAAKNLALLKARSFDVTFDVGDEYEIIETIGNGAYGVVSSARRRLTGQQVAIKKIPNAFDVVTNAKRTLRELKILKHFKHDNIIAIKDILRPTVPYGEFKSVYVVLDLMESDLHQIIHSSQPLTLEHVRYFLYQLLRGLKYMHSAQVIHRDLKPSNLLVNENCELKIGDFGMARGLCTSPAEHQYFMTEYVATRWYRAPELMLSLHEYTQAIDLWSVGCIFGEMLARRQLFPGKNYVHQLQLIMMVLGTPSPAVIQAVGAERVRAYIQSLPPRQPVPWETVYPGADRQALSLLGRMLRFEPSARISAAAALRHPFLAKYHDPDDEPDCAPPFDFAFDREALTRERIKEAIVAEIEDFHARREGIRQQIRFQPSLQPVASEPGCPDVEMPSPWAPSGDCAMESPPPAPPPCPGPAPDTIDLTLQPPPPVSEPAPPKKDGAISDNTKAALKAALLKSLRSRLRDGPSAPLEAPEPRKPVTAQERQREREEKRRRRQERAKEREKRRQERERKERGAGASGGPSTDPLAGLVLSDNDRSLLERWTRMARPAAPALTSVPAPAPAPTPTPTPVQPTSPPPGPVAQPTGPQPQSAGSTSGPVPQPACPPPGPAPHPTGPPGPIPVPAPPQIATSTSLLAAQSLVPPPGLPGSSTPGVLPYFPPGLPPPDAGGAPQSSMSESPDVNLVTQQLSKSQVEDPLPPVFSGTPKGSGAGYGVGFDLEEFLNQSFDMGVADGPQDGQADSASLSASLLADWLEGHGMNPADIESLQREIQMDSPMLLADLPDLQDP
How it is done:
as §1

T1 sequence (Q99558 whole entry): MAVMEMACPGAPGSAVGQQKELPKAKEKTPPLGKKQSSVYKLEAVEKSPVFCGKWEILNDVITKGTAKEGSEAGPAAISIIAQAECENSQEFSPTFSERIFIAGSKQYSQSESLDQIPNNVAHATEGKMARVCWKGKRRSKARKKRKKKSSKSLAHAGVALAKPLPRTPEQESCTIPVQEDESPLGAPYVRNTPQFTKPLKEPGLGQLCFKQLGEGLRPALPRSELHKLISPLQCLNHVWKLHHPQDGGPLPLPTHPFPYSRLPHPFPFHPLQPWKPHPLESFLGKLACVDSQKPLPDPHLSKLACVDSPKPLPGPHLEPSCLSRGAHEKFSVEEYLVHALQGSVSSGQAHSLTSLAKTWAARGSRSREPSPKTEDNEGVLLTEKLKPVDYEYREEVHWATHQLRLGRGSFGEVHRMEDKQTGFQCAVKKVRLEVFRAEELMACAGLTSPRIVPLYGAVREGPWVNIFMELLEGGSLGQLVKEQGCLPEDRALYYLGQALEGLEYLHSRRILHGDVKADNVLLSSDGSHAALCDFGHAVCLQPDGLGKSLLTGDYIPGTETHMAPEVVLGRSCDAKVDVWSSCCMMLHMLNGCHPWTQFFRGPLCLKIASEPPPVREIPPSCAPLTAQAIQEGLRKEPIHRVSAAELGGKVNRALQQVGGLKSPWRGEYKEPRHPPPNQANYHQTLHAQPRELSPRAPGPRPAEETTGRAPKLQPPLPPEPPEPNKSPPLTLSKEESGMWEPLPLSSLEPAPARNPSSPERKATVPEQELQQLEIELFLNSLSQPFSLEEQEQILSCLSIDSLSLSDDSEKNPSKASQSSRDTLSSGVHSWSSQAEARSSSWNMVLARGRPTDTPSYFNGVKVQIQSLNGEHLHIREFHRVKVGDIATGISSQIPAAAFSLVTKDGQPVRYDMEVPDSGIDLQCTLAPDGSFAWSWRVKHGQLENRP
T8 sequence (Q9HAZ1 whole entry): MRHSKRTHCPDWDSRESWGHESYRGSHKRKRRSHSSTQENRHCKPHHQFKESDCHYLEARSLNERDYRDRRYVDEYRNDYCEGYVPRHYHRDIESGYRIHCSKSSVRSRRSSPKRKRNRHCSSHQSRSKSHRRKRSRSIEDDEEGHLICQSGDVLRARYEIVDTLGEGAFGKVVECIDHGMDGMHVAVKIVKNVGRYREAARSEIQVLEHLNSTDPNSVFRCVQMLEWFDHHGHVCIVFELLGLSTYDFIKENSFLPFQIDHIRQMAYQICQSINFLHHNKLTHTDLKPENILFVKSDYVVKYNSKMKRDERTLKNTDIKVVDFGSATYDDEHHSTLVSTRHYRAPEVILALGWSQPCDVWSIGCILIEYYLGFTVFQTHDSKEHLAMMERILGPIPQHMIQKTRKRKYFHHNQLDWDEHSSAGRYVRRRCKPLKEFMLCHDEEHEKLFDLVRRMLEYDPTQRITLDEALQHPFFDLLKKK
T2 sequence (Q8IZL9 whole entry): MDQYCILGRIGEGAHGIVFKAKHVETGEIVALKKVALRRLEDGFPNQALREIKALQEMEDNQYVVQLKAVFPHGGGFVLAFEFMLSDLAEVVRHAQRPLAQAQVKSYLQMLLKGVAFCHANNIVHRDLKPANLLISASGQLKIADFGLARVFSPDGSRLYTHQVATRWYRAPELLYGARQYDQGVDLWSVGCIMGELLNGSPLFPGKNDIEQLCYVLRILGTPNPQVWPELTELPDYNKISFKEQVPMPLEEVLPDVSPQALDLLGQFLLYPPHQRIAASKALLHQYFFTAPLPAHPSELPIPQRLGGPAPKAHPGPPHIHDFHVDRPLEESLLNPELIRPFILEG
T2 sequence (O60563 whole entry partner): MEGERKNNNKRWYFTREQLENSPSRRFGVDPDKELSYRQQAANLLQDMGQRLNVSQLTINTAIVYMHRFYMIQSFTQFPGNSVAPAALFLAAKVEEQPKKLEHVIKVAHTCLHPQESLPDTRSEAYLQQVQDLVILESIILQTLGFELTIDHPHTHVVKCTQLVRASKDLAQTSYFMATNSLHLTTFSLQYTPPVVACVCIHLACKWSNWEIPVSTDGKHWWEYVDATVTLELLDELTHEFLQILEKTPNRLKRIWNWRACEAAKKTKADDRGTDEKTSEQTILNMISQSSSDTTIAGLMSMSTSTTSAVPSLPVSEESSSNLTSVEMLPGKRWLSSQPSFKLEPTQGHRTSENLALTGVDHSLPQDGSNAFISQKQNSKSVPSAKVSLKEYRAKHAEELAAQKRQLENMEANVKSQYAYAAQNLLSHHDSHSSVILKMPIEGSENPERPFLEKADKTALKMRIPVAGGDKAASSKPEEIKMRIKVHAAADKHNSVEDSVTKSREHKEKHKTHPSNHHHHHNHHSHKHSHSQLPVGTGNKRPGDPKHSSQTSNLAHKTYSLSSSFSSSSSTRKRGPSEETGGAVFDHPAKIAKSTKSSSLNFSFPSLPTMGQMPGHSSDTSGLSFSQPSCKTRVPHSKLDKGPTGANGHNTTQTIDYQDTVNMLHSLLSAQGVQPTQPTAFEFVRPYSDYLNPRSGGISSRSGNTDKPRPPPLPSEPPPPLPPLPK

`c1ccc(CNc2cc(-c3c[nH]c4ncccc34)ccn2)cc1` [meriolin 36]: the residual kinase activity at NIK (0.3 µM) is 59 % of control; at NIK (3 µM), 33 % of control; on CDK20/CycT1 (0.3 µM), 19 % of control; at CDK20/CycT1 (3 µM), 10 % of control; at GRK7 (0.3 µM) it was 94 % of control; at GRK7 (3 µM), 48 % of control. Besides, the residual kinase activity on ARK5 (0.3 µM) is on record as 90 % of control; on ARK5 (3 µM), 40 % of control; on JAK3 (0.3 µM), 5 % of control; at JAK3 (3 µM) it was -1 % of control; at RET (0.3 µM), 61 % of control; on RET (3 µM), 12 % of control. Also, the residual kinase activity on TTBK1 (0.3 µM) is 101 % of control; on TTBK1 (3 µM), 77 % of control; at CLK4 (0.3 µM) it was 1 % of control; on CLK4 (3 µM), 1 % of control; at ERK5 (0.3 µM), 13 % of control; on ERK5 (3 µM), 8 % of control.
For `COc1ccnc2[nH]cc(-c3cc(N)nc(N)c3)c12` [meriolin 16], the residual kinase activity is 94 % of control at NIK (0.03 µM); 79 % of control at NIK (0.3 µM); 36 % of control at CDK20/CycT1 (0.03 µM); 17 % of control on CDK20/CycT1 (0.3 µM); 105 % of control at GRK7 (0.03 µM); 78 % of control on GRK7 (0.3 µM). The residual kinase activity was 92 % of control at ARK5 (0.03 µM); 88 % of control on ARK5 (0.3 µM); 58 % of control at JAK3 (0.03 µM); 15 % of control on JAK3 (0.3 µM); 106 % of control on RET (0.03 µM); 100 % of control at RET (0.3 µM). Moreover, the residual kinase activity on TTBK1 (0.03 µM) is 116 % of control; on TTBK1 (0.3 µM), 108 % of control; on CLK4 (0.03 µM), 3 % of control; at CLK4 (0.3 µM), 0 % of control; on ERK5 (0.03 µM) it was 28 % of control; on ERK5 (0.3 µM), 22 % of control.
